The supplement of paper PMC10331698
± gives the standard deviation of the averaged measurements.

Assays:
Assay in all cases: level (log10 ratio to DMSO vehicle control); higher = higher biomarker level / cell amount than vehicle control
[1] = compound: C=C(C)C(=O)OCCC(F)(F)C(F)(F)C(F)(F)C(F)(F)C(F)(F)C(F)(F)F [6:2 Fluorotelomer methacrylate]; details: in DMSO
Method: (§1)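 BioMAP Diversity Plus panel of 12 human primary cell co-culture systems (3C, 4H, LPS, SAg, BT, BF4T, BE3C, CASM3C, HDF3CGF, KF3CT, MyoF, Mphg). Compounds were added 1 h before stimulation and left for 24 h (MyoF 48 h; BT 72 h for soluble read-outs or 6 d for IgG). Biomarkers were read by ELISA, cytotoxicity by SRB, PBMC viability and proliferation by Alamar Blue. Each well value was divided by the mean of 8 DMSO control wells on the same plate and log10 transformed; duplicate blinded samples were tested at 4 concentrations.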

[2] = compound: C=CC(=O)OCC(F)(F)C(F)(F)C(F)(F)COC(=O)C=C [1H,1H,5H,5H-Perfluoro-1,5-pentanediol diacrylate]; details: 6700 nM; in DMSO
Method: as §1

[3] = compound: COC(=O)C(F)(F)C(F)(F)OC(F)(C(F)(F)F)C(F)(F)OC(F)=C(F)F [Methyl perfluoro(3-(1-ethenyloxypropan-2-yloxy)propanoate)]; details: in DMSO
Method: as §1

[4] = compound: FC(F)(F)C(F)(F)C(F)(F)C(F)(F)C(F)(F)C(F)(F)C(F)(F)I [1-Iodopentadecafluoroheptane]; details: in DMSO
Method: as §1

[5] = compound: FC(F)(F)C(F)(F)C(F)(F)C(F)(F)C(F)(F)C(F)(F)CC1CO1 [3-(Perfluorohexyl)-1,2-epoxypropane]; details: in DMSO
Method: as §1

[6] = compound: FC(F)(F)C(F)(F)C(F)(F)CC1CO1 [1H,1H-Heptafluorobutyl epoxide]; details: in DMSO
Method: as §1

Heptafluorobutyl iodide = compound: FC(F)(F)C(F)(F)C(F)(F)CI [Heptafluorobutyl iodide]; details: in DMSO
Method: as §1

[7] = compound: FC(F)(F)C(F)(F)CNCC(F)(F)C(F)(F)F [Bis(1H,1H-perfluoropropyl)amine]; details: in DMSO
Method: as §1

Octafluoroadipamide = compound: NC(=O)C(F)(F)C(F)(F)C(F)(F)C(F)(F)C(N)=O [Octafluoroadipamide]; details: in DMSO
Method: as §1

Nonafluoropentanamide = compound: NC(=O)C(F)(F)C(F)(F)C(F)(F)C(F)(F)F [Nonafluoropentanamide]; details: in DMSO
Method: as §1

[8] = compound: NC(=O)C(F)(F)C(F)(F)C(F)(F)C(F)F; details: in DMSO
Method: as §1

[9] = compound: NS(=O)(=O)C(F)(F)C(F)(F)C(F)(F)C(F)(F)C(F)(F)C(F)(F)F [Perfluorohexanesulfonamide]; details: in DMSO
Method: as §1

[10] = compound: O=C(O)C(F)(F)C(F)(F)C(F)(F)C(F)(F)C(F)(F)C(F)(F)C(F)(F)C(F)(F)C(F)(F)C(F)F [11-H-Perfluoroundecanoic acid]; details: in DMSO
Method: as §1

[11] = compound: O=C(O)C=CC(F)(C(F)(F)F)C(F)(F)F [3-(Perfluoroisopropyl)-2-propenoic acid]; details: in DMSO
Method: as §1

[12] = compound: O=S(=O)(Cl)C(F)(F)C(F)(F)C(F)(F)C(F)(F)C(F)(F)C(F)(F)C(F)(F)C(F)(F)F [Perfluoro-1-octanesulfonyl chloride]; details: in DMSO
Method: as §1

[13] = compound: O=S(=O)(F)C(F)(F)C(F)(F)C(F)(F)C(F)(F)C(F)(F)C(F)(F)C(F)(F)C(F)(F)F [Perfluorooctanesulfonyl fluoride]; details: in DMSO
Method: as §1

[14] = compound: O=S(=O)(O)C(F)(F)C(F)(F)C(F)(F)C(F)(F)C(F)(F)C(F)(F)C(F)(F)C(F)(F)C(F)(F)C(F)(F)F [Sodium perfluorodecanesulfonate]; details: in DMSO
Method: as §1

[15] = compound: O=S(=O)(O)CCC(F)(F)C(F)(F)C(F)(F)C(F)(F)C(F)(F)C(F)(F)F [6:2 Fluorotelomer sulfonic acid]; details: in DMSO
Method: as §1

Hexafluoroamylene glycol = compound: OCC(F)(F)C(F)(F)C(F)(F)CO [Hexafluoroamylene glycol]; details: in DMSO
Method: as §1

BF4T:tPA
level (log10) ([1]; 6700 nM): -0.0185 ± 0.016
level (log10) ([1]; 20000 nM): -0.036 ± 0.038
level (log10) ([1]; 60000 nM): -0.014 ± 0.047
level (log10) [2]: -0.071 ± 0.014
level (log10) ([3]; 6700 nM): -0.053 ± 0.025
level (log10) ([3]; 20000 nM): -0.046 ± 0.0028
level (log10) ([4]; 6700 nM): 0.022 ± 0.025
level (log10) ([4]; 20000 nM): -0.0085 ± 0.016
level (log10) ([5]; 6700 nM): 0.0155 ± 0.039
level (log10) ([5]; 20000 nM): -0.011 ± 0.0085
level (log10) ([5]; 60000 nM): 0.031 ± 0.034
level (log10) ([6]; 6700 nM): -0.012 ± 0.014
level (log10) ([6]; 20000 nM): -0.0235 ± 0.018
level (log10) ([6]; 60000 nM): -0.0065 ± 0.011
level (log10) (Heptafluorobutyl iodide; 6700 nM): -0.016 ± 0.0042
level (log10) (Heptafluorobutyl iodide; 20000 nM): -0.0235 ± 0.0078
level (log10) (Heptafluorobutyl iodide; 60000 nM): -0.009 ± 0.05
level (log10) ([7]; 6700 nM): -0.062 ± 0.035
level (log10) ([7]; 20000 nM): -0.054 ± 0.023
level (log10) ([7]; 60000 nM): -0.0335 ± 0.0035
level (log10) (Octafluoroadipamide; 6700 nM): -0.0475 ± 0.035
level (log10) (Octafluoroadipamide; 20000 nM): -0.047 ± 0.045
level (log10) (Octafluoroadipamide; 60000 nM): -0.023 ± 0.081
level (log10) (Nonafluoropentanamide; 6700 nM): -0.021 ± 0.018
level (log10) (Nonafluoropentanamide; 20000 nM): -0.043 ± 0.023
level (log10) (Nonafluoropentanamide; 60000 nM): -0.0405 ± 0.0078
level (log10) ([8]; 6700 nM): -0.0005 ± 0.021
level (log10) ([8]; 20000 nM): -0.0115 ± 0.022
level (log10) ([8]; 60000 nM): 0.0125 ± 0.005
level (log10) ([9]; 6700 nM): 0.004 ± 0.0028
level (log10) ([9]; 20000 nM): -0.012 ± 0.0085
level (log10) ([9]; 60000 nM): -0.075 ± 0.016
level (log10) ([10]; 6700 nM): -0.131 ± 0.019
level (log10) ([10]; 20000 nM): -0.133
level (log10) ([11]; 6700 nM): -0.004 ± 0.037
level (log10) ([11]; 20000 nM): -0.0055 ± 0.022
level (log10) ([11]; 60000 nM): 0.03 ± 0.024
level (log10) ([12]; 6700 nM): -0.0495 ± 0.029
level (log10) ([12]; 20000 nM): -0.047 ± 0.057
level (log10) ([12]; 60000 nM): -0.181 ± 0.085
level (log10) ([13]; 6700 nM): -0.003 ± 0.027
level (log10) ([13]; 20000 nM): -0.0155 ± 0.016
level (log10) ([13]; 60000 nM): -0.008 ± 0.0099
level (log10) ([14]; 1500 nM): 0.01 ± 0.0071
level (log10) ([14]; 4400 nM): 0.0175 ± 0.059
level (log10) ([14]; 13000 nM): 0.075 ± 0.018
level (log10) ([14]; 40000 nM): 0.068 ± 0.016
level (log10) ([15]; 6700 nM): -0.008 ± 0.027
level (log10) ([15]; 20000 nM): -0.036 ± 0.028
level (log10) ([15]; 60000 nM): -0.0355 ± 0.036
level (log10) (Hexafluoroamylene glycol; 6700 nM): -0.017 ± 0.021
level (log10) (Hexafluoroamylene glycol; 20000 nM): -0.0015 ± 0.0092
level (log10) (Hexafluoroamylene glycol; 60000 nM): 0.012 ± 0.038

3C:CD142/Tissue Factor
level (log10) ([1]; 6700 nM): 0.0295 ± 0.0021
level (log10) ([1]; 20000 nM): 0.034 ± 0.013
level (log10) ([1]; 60000 nM): 0.021 ± 0.054
level (log10) [2]: -0.29 ± 0.1
level (log10) ([3]; 6700 nM): 0.0415 ± 0.064
level (log10) ([3]; 20000 nM): 0.0255 ± 0.0064
level (log10) ([4]; 6700 nM): -0.0085 ± 0.015
level (log10) ([4]; 20000 nM): -0.052 ± 0.076
level (log10) ([5]; 6700 nM): -0.042 ± 0.027
level (log10) ([5]; 20000 nM): -0.05 ± 0.028
level (log10) ([5]; 60000 nM): -0.0195 ± 0.029
level (log10) ([6]; 6700 nM): 0.034 ± 0.0071
level (log10) ([6]; 20000 nM): 0 ± 0.033
level (log10) ([6]; 60000 nM): 0.0075 ± 0.022
level (log10) (Heptafluorobutyl iodide; 6700 nM): -0.0315 ± 0.019
level (log10) (Heptafluorobutyl iodide; 20000 nM): 0.0095 ± 0.016
level (log10) (Heptafluorobutyl iodide; 60000 nM): -0.0155 ± 0.019
level (log10) ([7]; 6700 nM): 0.038 ± 0.05
level (log10) ([7]; 20000 nM): -0.0105 ± 0.094
level (log10) ([7]; 60000 nM): 0.0165 ± 0.11
level (log10) (Octafluoroadipamide; 6700 nM): 0.007 ± 0.082
level (log10) (Octafluoroadipamide; 20000 nM): 0.0255 ± 0.073
level (log10) (Octafluoroadipamide; 60000 nM): 0.0795 ± 0.046
level (log10) (Nonafluoropentanamide; 6700 nM): -0.049 ± 0.041
level (log10) (Nonafluoropentanamide; 20000 nM): -0.0275 ± 0.04
level (log10) (Nonafluoropentanamide; 60000 nM): -0.067 ± 0.044
level (log10) ([8]; 6700 nM): -0.0025 ± 0.066
level (log10) ([8]; 20000 nM): 0.006 ± 0.033
level (log10) ([8]; 60000 nM): 0.0115 ± 0.036
level (log10) ([9]; 6700 nM): 0.0005 ± 0.0078
level (log10) ([9]; 20000 nM): -0.0285 ± 0.032
level (log10) ([9]; 60000 nM): -0.0365 ± 0.029
level (log10) ([10]; 6700 nM): -0.011 ± 0.011
level (log10) ([10]; 20000 nM): -0.0245 ± 0.013
level (log10) ([11]; 6700 nM): -0.018 ± 0.065
level (log10) ([11]; 20000 nM): -0.036 ± 0.048
level (log10) ([11]; 60000 nM): 0.003 ± 0.061
level (log10) ([12]; 6700 nM): -0.035 ± 0.027
level (log10) ([12]; 20000 nM): 0.015 ± 0.013
level (log10) ([12]; 60000 nM): 0.0705 ± 0.063
level (log10) ([13]; 6700 nM): -0.0085 ± 0.005
level (log10) ([13]; 20000 nM): -0.0175 ± 0.0021
level (log10) ([13]; 60000 nM): -0.0105 ± 0.0021
level (log10) ([14]; 1500 nM): -0.0005 ± 0.04
level (log10) ([14]; 4400 nM): -0.0075 ± 0.015
level (log10) ([14]; 13000 nM): 0.0205 ± 0.025
level (log10) ([14]; 40000 nM): -0.0695 ± 0.0078
level (log10) ([15]; 6700 nM): -0.0065 ± 0.029
level (log10) ([15]; 20000 nM): 0.006 ± 0.021
level (log10) ([15]; 60000 nM): 0.0155 ± 0.064
level (log10) (Hexafluoroamylene glycol; 6700 nM): 0.014 ± 0.1
level (log10) (Hexafluoroamylene glycol; 20000 nM): 0.013 ± 0.062
level (log10) (Hexafluoroamylene glycol; 60000 nM): 0.009 ± 0.1
